Article PMC9837035 (Nature Communications, 2023)
Several values for one entry are separate records, joined by “and”; a condition that tells them apart may be missing. Equal values may be shown once.

Assay: Hematological and hepatic parameters, 2-week repeated oral dosing
Format: in vivo
Conditions: rats
[1] = RK-701 100 mg/kg for two weeks, individual animals 1-5, 100 mg/kg

With `Cc1c(C(=O)NC(CCC2CC2)C(=O)Nc2ccc(C#N)cc2)[nH]c2c1C(=O)CC(C)(C)C2` (centres unmarked) [RK-701] the PL [1] was 153 mg/dL and 118 mg/dL and 132 mg/dL and 110 mg/dL and 173 mg/dL, the PLT [1] was 110.2 x 10^4 cells/μL and 121.4 x 10^4 cells/μL and 96 x 10^4 cells/μL and 122.9 x 10^4 cells/μL and 114.3 x 10^4 cells/μL and the RBC [1] was 733 x 10^4 cells/μL and 700 x 10^4 cells/μL and 729 x 10^4 cells/μL and 744 x 10^4 cells/μL. The Retic [1] was 130.2 x 10^9 cells/L and 149.9 x 10^9 cells/L and 250.7 x 10^9 cells/L and 185.7 x 10^9 cells/L and 177.3 x 10^9 cells/L, the T-CHO [1] was 94 mg/dL and 67 mg/dL and 91 mg/dL and 72 mg/dL and 116 mg/dL and the TG [1] was 26 mg/dL and 19 mg/dL and 9 mg/dL and 8 mg/dL and 32 mg/dL. For the same molecule, the TP [1] was 5.6 g/dL and 5.8 g/dL and 5.9 g/dL and 5.7 g/dL and 6.2 g/dL, the WBC [1] was 71.5 x 10^2 cells/μL and 60.2 x 10^2 cells/μL and 79.6 x 10^2 cells/μL and 61.2 x 10^2 cells/μL and 101.3 x 10^2 cells/μL and the “effect on hematological and hepatic parameters” value (oral, up to 100 mg/kg, two weeks) was “no serious effect”. For the same molecule, the ALB (two weeks, 10 mg/kg) was 3.6 ± 0.2 g/dL, the ALP (two weeks, 10 mg/kg) was 487 ± 170 IU/L and the ALT (two weeks, 10 mg/kg) was 28 ± 5 IU/L. For the same molecule, the AST (two weeks, 10 mg/kg) was 64 ± 4 IU/L, the EOS (two weeks, 10 mg/kg) was 0.6 ± 0.1 x 102 cells/μL and the HCT (two weeks, 10 mg/kg) was 43.7± 1.7%. The HGB (two weeks, 10 mg/kg) was 15.1 ± 0.7 g/dL, the LUC (two weeks, 10 mg/kg) was 0.4 ± 0.2 x 102 cells/μL and the Lymph (two weeks, 10 mg/kg) was 51.4 ± 10.7 x 102 cells/μL. It also gave an MCH (two weeks, 10 mg/kg) of 20.4 ± 0.6 pg, an MCHC (two weeks, 10 mg/kg) of 34.6 ± 0.3 g/dL and an MCV (two weeks, 10 mg/kg) of 58.9 ± 1.6 fL. For the same molecule, the MONO (two weeks, 10 mg/kg) was 0.9 ± 0.2 x 102 cells/μL, the NEUT (two weeks, 10 mg/kg) was 6.4 ± 1.7 x 102 cells/μL and the PL (two weeks, 10 mg/kg) was 121 ± 18 mg/dL. The RBC (two weeks, 10 mg/kg) was 741 ± 19 x 104 cells/μL, the Retic (two weeks, 10 mg/kg) was 190 ± 28.3 x 109 cells/L and the T-CHO (two weeks, 10 mg/kg) was 68 ± 13 mg/dL. For the same molecule, the TG (two weeks, 10 mg/kg) was 24 ± 15 mg/dL, the TP (two weeks, 10 mg/kg) was 6.0 ± 0.3 g/dL and the WBC (two weeks, 10 mg/kg) was 59.8 ± 12.2 x 102 cells/μL. For the same molecule, the ALB (two weeks, 30 mg/kg) was 3.5 ± 0.2 g/dL, the ALP (two weeks, 30 mg/kg) was 511 ± 141 IU/L and the ALT (two weeks, 30 mg/kg) was 26 ± 3 IU/L. The AST (two weeks, 30 mg/kg) was 64 ± 7 IU/L, the EOS (two weeks, 30 mg/kg) was 0.5 ± 0.1 x 102 cells/μL and the HCT (two weeks, 30 mg/kg) was 42.6 ± 1.4%. For the same molecule, the HGB (two weeks, 30 mg/kg) was 14.5 ± 0.5 g/dL, the LUC (two weeks, 30 mg/kg) was 0.4 ± 0.1 x 102 cells/μL and the Lymph (two weeks, 30 mg/kg) was 53.0 ± 10.3 x 102 cells/μL. It also gave an MCH (two weeks, 30 mg/kg) of 20.0 ± 1.0 pg, an MCHC (two weeks, 30 mg/kg) of 34.0 ± 0.5 g/dL and an MCV (two weeks, 30 mg/kg) of 58.7 ± 2.6 fL. The MONO (two weeks, 30 mg/kg) was 0.9 ± 0.1 x 102 cells/μL, the NEUT (two weeks, 30 mg/kg) was 6.7 ± 2.1 x 102 cells/μL and the PLT (two weeks, 30 mg/kg) was 122 ±15.7 x 104 cells/μL. For the same molecule, the RBC (two weeks, 30 mg/kg) was 726 ± 36 x 104 cells/μL, the Retic (two weeks, 30 mg/kg) was 228 ± 37.5 x 109 cells/L and the T-CHO (two weeks, 30 mg/kg) was 64 ± 5 mg/dL. The TG (two weeks, 30 mg/kg) was 17 ± 6 mg/dL, the TP (two weeks, 30 mg/kg) was 5.9 ± 0.2 g/dL and the WBC (two weeks, 30 mg/kg) was 61.6 ± 9.2 x 102 cells/μL. It also gave an ALB (two weeks, 100 mg/kg) of 3.4 ± 0.1 g/dL, an ALP (two weeks, 100 mg/kg) of 566 ± 181 IU/L and an ALT (two weeks, 100 mg/kg) of 29 ± 5 IU/L. The AST (two weeks, 100 mg/kg) was 64 ± 5 IU/L, the EOS (two weeks, 100 mg/kg) was 0.6 ± 0.2 x 102 cells/μL and the HCT (two weeks, 100 mg/kg) was 42.9 ± 1.1%. For the same molecule, the HGB (two weeks, 100 mg/kg) was 14.8 ± 0.3 g/dL, the LUC (two weeks, 100 mg/kg) was 0.5 ± 0.2 x 102 cells/μL and the Lymph (two weeks, 100 mg/kg) was 64.6 ± 14.9 x 102 cells/μL. It also gave an MCH (two weeks, 100 mg/kg) of 20.3 ± 0.2 pg, an MCHC (two weeks, 100 mg/kg) of 34.4 ± 0.3 g/dL and an MCV (two weeks, 100 mg/kg) of 59.0 ± 0.7 fL. The MONO (two weeks, 100 mg/kg) was 1.2 ± 0.4 x 102 cells/μL, the NEUT (two weeks, 100 mg/kg) was 7.8 ± 2.9 x 102 cells/μL and the PL (two weeks, 100 mg/kg) was 137 ± 26 mg/dL. The Retic (two weeks, 100 mg/kg) was 179 ± 45.9 x 109 cells/L, the T-CHO (two weeks, 100 mg/kg) was 88 ± 20 mg/dL and the TG (two weeks, 100 mg/kg) was 19 ± 10 mg/dL. For the same molecule, the TP (two weeks, 100 mg/kg) was 5.8 ± 0.2 g/dL and the WBC (two weeks, 100 mg/kg) was 74.8 ± 16.8 x 102 cells/μL.
